Assay [1] deals with stress ulcer in rats. The experiment in a line: Action to stress ulcer in rats (restraint and water immersion). The assay is classed as in vivo, Male Wister rats. The note with it: Rattus norvegicus, po, 30 minutes before restraint, inhibition ratio, read-out: Ulcer Index (%). As for the experimental part:
(Action to stress ulcer in rats)
Male Wister rats weighing about 180 g (age: 6 weeks) were used for this experiment.
Ten rats in each group were deprived of food for 24 hours before the experiment. They were immobilized in a restraint cage and immersed for 7 hours to the height of the xiphoid in a water bath kept at 23±1°C. After inflation with 10 ml of 1% formalin, the isolated stomach was opened along the greater curvature. The ulcer index (UI) was determined as the sum of the length (mm) of each erosion per rat. Each of the compounds to be tested was suspended in 5% gum arabic solution and given orally 30 minutes before restraint. Control animals received the same solution without any drug or the test compound.
(§1) Inhibition ratio is expressed as follows. [formula]

For assay [2], the system named is gastric necrosis in rats. The experiment in a line: Action to gastric necrosis in rats (absolute ethanol). The assay is classed as in vivo, Male Sprague-Dewley rats. The conditions noted are these: po, 1 hour before absolute ethanol, inhibition ratio. As for the experimental part: (Action to gastric necrosis in rats)
Male Sprague-Dewley rats weighing about 250 g were used for this experiment.
Ten rats in each group were deprived of food for 24 hours before the experiment. Each of the compounds to be tested was suspended in 5% gum arabic solution and given orally to the test animal. After 1 hours from the administration of the compound. 1 ml of absolute ethanol was administered orally and the animals were killed 1 hour later from the ethanol administration. After inflation with 10 ml of 1% formalin, the isolated stomach was opened along the greater curvature. The ulcer index (UI) was determined as the sum of the length (mm) of each erosion per rat. […]. Control animals received the same solution without any drug or the test compound.
as §1

Results on 15 compounds are retold here after patent US4871740A, “Glycyrrhetic acid derivatives and use thereof” (Sanwa Kagaku Kenkyusho Co., Ltd., priority 1986, dated 1989).

Counter-ions that a name gives are not always drawn.

On to `COc1ccccc1N1CCN(C(=O)[C@@]2(C)CC[C@]3(C)CC[C@]4(C)C(=CC[C@@H]5[C@@]6(C)CC[C@H](O)C(C)(C)[C@@H]6CC[C@]54C)[C@@H]3C2)CC1` [Compound 2i, 1-(3β-hydroxy-18β-olean-12-en-30-oyl)-4-(o-methoxyphenyl)piperazine], for which, in assay [1], the inhibition in vivo at 25 mg/kg is -18%, the inhibition in vivo at 50 mg/kg is 4.9% and the inhibition in vivo at 100 mg/kg amounted to 46.4%.

Consider `CC(C)=CCCC(C)=CCSCCNC(=O)[C@@]1(C)CC[C@]2(C)CC[C@]3(C)C(=CC[C@@H]4[C@@]5(C)CC[C@H](OC(=O)/C=C\C(=O)O)C(C)(C)[C@@H]5CC[C@]43C)[C@@H]2C1` [Compound 4a, N-[2-(3,7-Dimethyl-2,6-octadien-1-ylthio)ethyl]-3β-(3-carboxy-cis-propenoyloxy)-18β-olean-12-en-30-amide sodium salt], for which, in assay [1], the inhibition in vivo at 25 mg/kg stood at 21.1%, the inhibition in vivo at 50 mg/kg amounted to 58.2% and the inhibition in vivo at 100 mg/kg came to 73.1%.

Take `CC(C)=CCCC(C)=CCCC(C)=CCSCCNC(=O)[C@@]1(C)CC[C@]2(C)CC[C@]3(C)C(=CC[C@@H]4[C@@]5(C)CC[C@H](OC(=O)/C=C\C(=O)O)C(C)(C)[C@@H]5CC[C@]43C)[C@@H]2C1` [Compound 4b]: in assay [1], the inhibition in vivo at 25 mg/kg stood at 51%, the inhibition in vivo at 50 mg/kg stood at 62.6% and the inhibition in vivo at 100 mg/kg is 60.5%.

Turning to `CC(C)=CCCC(C)=CCCC(C)=CCCC(C)=CCSCCNC(=O)[C@@]1(C)CC[C@]2(C)CC[C@]3(C)C(=CC[C@@H]4[C@@]5(C)CC[C@H](OC(=O)/C=C\C(=O)O)C(C)(C)[C@@H]5CC[C@]43C)[C@@H]2C1` [Compound 4c], in assay [1], the inhibition in vivo at 12.5 mg/kg turned out to be 33.3%, the inhibition in vivo at 25 mg/kg came out at 30.5%, the inhibition in vivo at 50 mg/kg is 46.8% and the inhibition in vivo at 100 mg/kg stood at 61%. Besides, the “Ulcer Index (%)” value in assay [2] (25 mg/kg) amounted to 43.3%. The “Ulcer Index (%)” value in assay [2] (50 mg/kg) is on record as 66.1%. In assay [2] (100 mg/kg), the “Ulcer Index (%)” value came to 48.9%.

Take `CC(C)=CCCC(C)=CCCC(C)=CCCC(C)=CCCC(C)=CCCC(C)=CCCC(C)=CCCC(C)=CCCC(C)=CCSCCNC(=O)C1(C)CCC2(C)CCC3(C)C(=CCC4C5(C)CCC(OC(=O)C=CC(=O)O)C(C)(C)C5CCC43C)C2C1` (stereo not shown) [Compound 4d]: in assay [1], the inhibition in vivo at 12.5 mg/kg was 33.9%, the inhibition in vivo at 25 mg/kg is 55.4%, the inhibition in vivo at 50 mg/kg was found to be 42.1% and the inhibition in vivo at 100 mg/kg came to 56.2%. The “Ulcer Index (%)” value in assay [2] (25 mg/kg) worked out at 31.7%. In addition, the “Ulcer Index (%)” value in assay [2] (50 mg/kg) was 20.6%. In addition, the “Ulcer Index (%)” value in assay [2] (100 mg/kg) was 39.2%.

With `CC(C)=CCCC(C)=CCCC(C)=CCCC(C)=CCCC(C)=CCCC(C)=CCCC(C)=CCCC(C)=CCCC(C)=CCCC(C)=CCSCCNC(=O)C1(C)CCC2(C)CCC3(C)C(=CCC4C5(C)CCC(OC(=O)C=CC(=O)O)C(C)(C)C5CCC43C)C2C1` (stereo not shown) [Compound 4e], in assay [1], the inhibition in vivo at 12.5 mg/kg is 50%, the inhibition in vivo at 25 mg/kg worked out at 44.7%, the inhibition in vivo at 50 mg/kg is 53.5% and the inhibition in vivo at 100 mg/kg amounted to 60.5%. The “Ulcer Index (%)” value in assay [2] (25 mg/kg) is reported as 21.3%. For the same compound, the “Ulcer Index (%)” value in assay [2] (50 mg/kg) is -9.5%. Besides, the “Ulcer Index (%)” value in assay [2] (100 mg/kg) is reported as -34.7%.

As for `CC(=CCSCCNC(=O)[C@@]1(C)CC[C@]2(C)CC[C@]3(C)C(=CC[C@@H]4[C@@]5(C)CC[C@H](OC(=O)/C=C\C(=O)O)C(C)(C)[C@@H]5CC[C@]43C)[C@@H]2C1)CCCC(C)CCCC(C)CCCC(C)C` (stereo partly shown) [Compound 4f], in assay [1], the inhibition in vivo at 25 mg/kg is 16.5%, the inhibition in vivo at 50 mg/kg was 4.3% and the inhibition in vivo at 100 mg/kg was 34.5%.

Regarding `CC(C)=CCCC(C)=CCCC(C)=CCN1CCN(C(=O)[C@@]2(C)CC[C@]3(C)CC[C@]4(C)C(=CC[C@@H]5[C@@]6(C)CC[C@H](OC(=O)/C=C\C(=O)O)C(C)(C)[C@@H]6CC[C@]54C)[C@@H]3C2)CC1` [Compound 4g], in assay [1], the inhibition in vivo at 12.5 mg/kg worked out at 11.7%, the inhibition in vivo at 25 mg/kg amounted to 22.5% and the inhibition in vivo at 50 mg/kg turned out to be 21.6%.

For `CC(C)=CCCC(C)=CCCC(C)=CCOC(=O)[C@@]1(C)CC[C@]2(C)CC[C@]3(C)C(=CC[C@@H]4[C@@]5(C)CC[C@H](OC(=O)/C=C\C(=O)O)C(C)(C)[C@@H]5CC[C@]43C)[C@@H]2C1` [Compound 4h], in assay [1], the inhibition in vivo at 12.5 mg/kg stood at 8%, the inhibition in vivo at 25 mg/kg worked out at 6.1% and the inhibition in vivo at 50 mg/kg worked out at 35.7%.

For `COc1ccccc1N1CCN(C(=O)[C@@]2(C)CC[C@]3(C)CC[C@]4(C)C(=CC[C@@H]5[C@@]6(C)CC[C@H](OC(=O)/C=C\C(=O)O)C(C)(C)[C@@H]6CC[C@]54C)[C@@H]3C2)CC1` [Compound 4i], in assay [1], the inhibition in vivo at 25 mg/kg is 24.4%, the inhibition in vivo at 50 mg/kg came to 61.4% and the inhibition in vivo at 100 mg/kg stood at 76.5%.

In the case of `CC(C)=CCCC(C)=CCCC(C)=CCCC(C)=CCCC(C)=CCCC(C)=CCCC(C)=CCCC(C)=CCCC(C)=CCCC(C)=CCSCCNC(=O)C1(C)CCC2(C)CCC3(C)C(=CC(=O)C4C5(C)CCC(OC(=O)C=CC(=O)O)C(C)(C)C5CCC43C)C2C1` (stereo not shown) [Compound 4k], in assay [1], the inhibition in vivo at 12.5 mg/kg was 48.5%, the inhibition in vivo at 25 mg/kg is 45.5%, the inhibition in vivo at 50 mg/kg is 43.6% and the inhibition in vivo at 100 mg/kg came to 56.4%. Also, in assay [2] (25 mg/kg), the “Ulcer Index (%)” value was 58.7%. In addition, the “Ulcer Index (%)” value in assay [2] (50 mg/kg) was 10.9%. Further, the “Ulcer Index (%)” value in assay [2] (100 mg/kg) amounted to 14.3%.

As to `COc1ccccc1N1CCN(C(=O)[C@@]2(C)CC[C@]3(C)CC[C@]4(C)C(=CC(=O)[C@@H]5[C@@]6(C)CC[C@H](OC(=O)/C=C\C(=O)O)C(C)(C)[C@@H]6CC[C@]54C)[C@@H]3C2)CC1` [Compound 4l], in assay [1], the inhibition in vivo at 12.5 mg/kg is 6.3%, the inhibition in vivo at 25 mg/kg is 25.9% and the inhibition in vivo at 50 mg/kg was determined as 31.7%.

In the case of `COc1ccccc1N1CCN(C(=O)[C@@]2(C)CC[C@]3(C)CC[C@]4(C)C(=CC[C@@H]5[C@@]6(C)CC[C@H](OC(=O)CCC(=O)O)C(C)(C)[C@@H]6CC[C@]54C)[C@@H]3C2)CC1` [Compound 4m, sodium salt], in assay [1], the inhibition in vivo at 25 mg/kg came to 9.5%, the inhibition in vivo at 50 mg/kg was 26.5% and the inhibition in vivo at 100 mg/kg was found to be 23.2%.

For the compound `CC1(C)[C@@H](OCC(=O)O)CC[C@]2(C)[C@H]3CC=C4[C@@H]5C[C@@](C)(C(=O)O)CC[C@]5(C)CC[C@@]4(C)[C@]3(C)CC[C@@H]12` [Compound 6, 3β-(carboxymethoxy)-18β-olean-12-en-30-oic acid disodium salt], in assay [1], the inhibition in vivo at 25 mg/kg is 7.2%, the inhibition in vivo at 50 mg/kg worked out at 42.5% and the inhibition in vivo at 100 mg/kg is 59.8%.

For `CC1(C)[C@@H](OCCC(=O)O)CC[C@]2(C)[C@H]3CC=C4[C@@H]5C[C@@](C)(C(=O)O)CC[C@]5(C)CC[C@@]4(C)[C@]3(C)CC[C@@H]12` [Compound 9, 3β-(2-Carboxyethoxy)-18β-olean-12-en-30-oic acid disodium salt], in assay [1], the inhibition in vivo at 25 mg/kg was -0.7%, the inhibition in vivo at 50 mg/kg turned out to be 11.8% and the inhibition in vivo at 100 mg/kg is 26.1%.
